# Measured values: PubChem BioAssay AID1259407 (Chemical Carcinogenesis Research Information System (CCRIS), 2018)
# Calls of active or inactive are those of the source. How the calls were made is not given here.
# Test system: CCRIS mutagenicity, Ames/micronucleus/aberration tests
# Experiment: CCRIS mutagenicity studies
# [1] = Test System: AMES SALMONELLA TYPHIMURIUM, Strain/Indicator: TA98, Metabolic Activation: HAMSTER, LIVER, S-9, AROCLOR 1254 (10%), Method: PREINCUBATION
# [2] = Test System: AMES SALMONELLA TYPHIMURIUM, Strain/Indicator: TA98, Metabolic Activation: NONE, Method: PREINCUBATION
# [3] = Test System: AMES SALMONELLA TYPHIMURIUM, Strain/Indicator: TA98, Metabolic Activation: RAT, LIVER, S-9, AROCLOR 1254 (10%), Method: PREINCUBATION
# [4] = Test System: AMES SALMONELLA TYPHIMURIUM, Strain/Indicator: TA100, Metabolic Activation: HAMSTER, LIVER, S-9, AROCLOR 1254 (10%), Method: PREINCUBATION
# [5] = Test System: AMES SALMONELLA TYPHIMURIUM, Strain/Indicator: TA100, Metabolic Activation: NONE, Method: PREINCUBATION
# [6] = Test System: AMES SALMONELLA TYPHIMURIUM, Strain/Indicator: TA100, Metabolic Activation: RAT, LIVER, S-9, AROCLOR 1254 (10%), Method: PREINCUBATION
# [7] = Test System: AMES SALMONELLA TYPHIMURIUM, Strain/Indicator: TA1535, Metabolic Activation: HAMSTER, LIVER, S-9, AROCLOR 1254 (10%), Method: PREINCUBATION
# [8] = Test System: AMES SALMONELLA TYPHIMURIUM, Strain/Indicator: TA1535, Metabolic Activation: NONE, Method: PREINCUBATION
# [9] = Test System: AMES SALMONELLA TYPHIMURIUM, Strain/Indicator: TA1535, Metabolic Activation: RAT, LIVER, S-9, AROCLOR 1254 (10%), Method: PREINCUBATION
# [10] = Test System: AMES SALMONELLA TYPHIMURIUM, Strain/Indicator: TA1537, Metabolic Activation: HAMSTER, LIVER, S-9, AROCLOR 1254 (10%), Method: PREINCUBATION
# [11] = Test System: AMES SALMONELLA TYPHIMURIUM, Strain/Indicator: TA1537, Metabolic Activation: NONE, Method: PREINCUBATION
# [12] = Test System: AMES SALMONELLA TYPHIMURIUM, Strain/Indicator: TA1537, Metabolic Activation: RAT, LIVER, S-9, AROCLOR 1254 (10%), Method: PREINCUBATION
# [13] = Test System: AMES SALMONELLA TYPHIMURIUM, Strain/Indicator: TA100, Metabolic Activation: NONE, Method: STANDARD PLATE
# [14] = Test System: AMES SALMONELLA TYPHIMURIUM, Strain/Indicator: TA98, Metabolic Activation: NONE, Method: STANDARD PLATE
compound,measurement,setting,value
O=[N+]([O-])c1cc2c3c(c1)CCc1c4c(cc(c1-3)CC2)CCCC4,mutagenic call,"Test System: AMES SALMONELLA TYPHIMURIUM, Strain/Indicator: TA98(1,8-DNP6), Metabolic Activation: NONE",active; positive
same,mutagenic call,"Test System: AMES SALMONELLA TYPHIMURIUM, Strain/Indicator: TA98(1,8-DNP6), Metabolic Activation: RAT, LIVER, S-9, AROCLOR 1254",active; positive
same,mutagenic call,"Test System: AMES SALMONELLA TYPHIMURIUM, Strain/Indicator: TA98(NR), Metabolic Activation: NONE",active; positive
same,mutagenic call,"Test System: AMES SALMONELLA TYPHIMURIUM, Strain/Indicator: TA98(NR), Metabolic Activation: RAT, LIVER, S-9, AROCLOR 1254",active; positive
same,mutagenic call,"Test System: AMES SALMONELLA TYPHIMURIUM, Strain/Indicator: TA98, Metabolic Activation: NONE",active; positive
same,mutagenic call,"Test System: AMES SALMONELLA TYPHIMURIUM, Strain/Indicator: TA98, Metabolic Activation: RAT, LIVER, S-9, AROCLOR 1254",active; positive
same,mutagenic call,"Test System: AMES SALMONELLA TYPHIMURIUM, Strain/Indicator: TA100(NR), Metabolic Activation: NONE",active; positive
same,mutagenic call,"Test System: AMES SALMONELLA TYPHIMURIUM, Strain/Indicator: TA100(NR), Metabolic Activation: RAT, LIVER, S-9, AROCLOR 1254",active; positive
same,mutagenic call,"Test System: AMES SALMONELLA TYPHIMURIUM, Strain/Indicator: TA100, Metabolic Activation: NONE",active; positive
same,mutagenic call,"Test System: AMES SALMONELLA TYPHIMURIUM, Strain/Indicator: TA100, Metabolic Activation: RAT, LIVER, S-9, AROCLOR 1254",active; positive
same,mutagenic call,"Test System: AMES SALMONELLA TYPHIMURIUM, Strain/Indicator: TA104, Metabolic Activation: NONE",active; positive
same,mutagenic call,"Test System: AMES SALMONELLA TYPHIMURIUM, Strain/Indicator: TA104, Metabolic Activation: RAT, LIVER, S-9, AROCLOR 1254",active; positive
N[C@@H](CS)C(=O)NCC(=O)O,mutagenic call,"Test System: AMES SALMONELLA TYPHIMURIUM, Strain/Indicator: TA102, Metabolic Activation: NONE, Method: STANDARD PLATE",active; positive
C[C@]12CC[C@H]3C(=CCc4cc(O)ccc43)[C@@H]1CCC2=O,mutagenic call,"Test System: UDS RAT HEPATOCYTES, Strain/Indicator: THY INCORP (18-20 HR), Metabolic Activation: NONE, Method: LIQUID SCINTILLATION COUNTING",inactive; negative
[Cl][Pd][Cl],mutagenic call,[1],inactive; negative
same,mutagenic call,[2],inactive; negative
same,mutagenic call,[3],inactive; negative
same,mutagenic call,[4],inactive; negative
same,mutagenic call,[5],inactive; negative
same,mutagenic call,[6],inactive; negative
same,mutagenic call,[7],inactive; negative
same,mutagenic call,[8],inactive; negative
same,mutagenic call,[9],inactive; negative
same,mutagenic call,[10],inactive; negative
same,mutagenic call,[11],inactive; negative
same,mutagenic call,[12],inactive; negative
O=C1c2ccccc2-c2ccc3c4c(ccc1c24)-c1ccccc1C3=O,mutagenic call,[1],inactive; negative
same,mutagenic call,[2],inactive; negative
same,mutagenic call,[3],inactive; negative
same,mutagenic call,[4],inactive; negative
same,mutagenic call,[5],inactive; negative
same,mutagenic call,[6],inactive; negative
same,mutagenic call,[7],inactive; negative
same,mutagenic call,[8],inactive; negative
same,mutagenic call,[9],inactive; negative
same,mutagenic call,[10],inactive; negative
same,mutagenic call,[11],inactive; negative
same,mutagenic call,[12],inactive; negative
same,mutagenic call,"Test System: MOUSE LYMPHOMA, Strain/Indicator: L5178Y (TK+/TK-), Metabolic Activation: RAT, LIVER, S-9, AROCLOR, Method: SUSPENSION/PLATE",active; positive
O=CN(O)c1ccc(Oc2ccccc2)cc1,mutagenic call,[13],inactive; negative
same,mutagenic call,"Test System: AMES SALMONELLA TYPHIMURIUM, Strain/Indicator: TA100, Metabolic Activation: RAT, LIVER, S-9, KANECLOR 500, Method: STANDARD PLATE",active; positive
O=[N+]([O-])c1ccccc1C(F)(F)F,mutagenic call,[14],inactive; negative
same,mutagenic call,"Test System: AMES SALMONELLA TYPHIMURIUM, Strain/Indicator: TA98, Metabolic Activation: RAT, LIVER, S-9, AROCLOR 1254, Method: STANDARD PLATE",inactive; negative
same,mutagenic call,[13],inactive; negative
same,mutagenic call,"Test System: AMES SALMONELLA TYPHIMURIUM, Strain/Indicator: TA100, Metabolic Activation: RAT, LIVER, S-9, AROCLOR 1254, Method: STANDARD PLATE",inactive; negative
same,mutagenic call,"Test System: AMES SALMONELLA TYPHIMURIUM, Strain/Indicator: TA1535, Metabolic Activation: NONE, Method: STANDARD PLATE",inactive; negative
same,mutagenic call,"Test System: AMES SALMONELLA TYPHIMURIUM, Strain/Indicator: TA1535, Metabolic Activation: RAT, LIVER, S-9, AROCLOR 1254, Method: STANDARD PLATE",inactive; negative
same,mutagenic call,"Test System: AMES SALMONELLA TYPHIMURIUM, Strain/Indicator: TA1537, Metabolic Activation: NONE, Method: STANDARD PLATE",inactive; negative
same,mutagenic call,"Test System: AMES SALMONELLA TYPHIMURIUM, Strain/Indicator: TA1537, Metabolic Activation: RAT, LIVER, S-9, AROCLOR 1254, Method: STANDARD PLATE",inactive; negative
same,mutagenic call,"Test System: AMES SALMONELLA TYPHIMURIUM, Strain/Indicator: TA1538, Metabolic Activation: NONE, Method: STANDARD PLATE",inactive; negative
same,mutagenic call,"Test System: AMES SALMONELLA TYPHIMURIUM, Strain/Indicator: TA1538, Metabolic Activation: RAT, LIVER, S-9, AROCLOR 1254, Method: STANDARD PLATE",inactive; negative
S=C=NCCc1ccccc1,mutagenic call,[14],inactive; negative
same,mutagenic call,"Test System: AMES SALMONELLA TYPHIMURIUM, Strain/Indicator: TA98, Metabolic Activation: RAT LIVER S-9, AROCLOR 1254, Method: STANDARD PLATE",active; positive
same,mutagenic call,[13],inactive; negative
same,mutagenic call,"Test System: AMES SALMONELLA TYPHIMURIUM, Strain/Indicator: TA100, Metabolic Activation: RAT LIVER S-9, AROCLOR 1254, Method: STANDARD PLATE",inactive; negative
COc1cc2oc(-c3ccc(O)cc3)c(O)c(=O)c2cc1OC,mutagenic call,[2],inactive; negative
same,mutagenic call,"Test System: AMES SALMONELLA TYPHIMURIUM, Strain/Indicator: TA98, Metabolic Activation: RAT LIVER S-9, SODIUM BARBITAL AND BETA-NAPHTHAFLAVONE, Method: PREINCUBATION",inactive; negative
same,mutagenic call,[5],inactive; negative
same,mutagenic call,"Test System: AMES SALMONELLA TYPHIMURIUM, Strain/Indicator: TA100, Metabolic Activation: RAT LIVER S-9, SODIUM BARBITAL AND BETA-NAPHTHAFLAVONE, Method: PREINCUBATION",inactive; negative
CC(=O)Nc1ccc(Cc2ccc(N)cc2)cc1,mutagenic call,[14],inactive; negative
same,mutagenic call,"Test System: AMES SALMONELLA TYPHIMURIUM, Strain/Indicator: TA98, Metabolic Activation: RAT, LIVER, S-9, PCB, Method: STANDARD PLATE",inactive; negative
same,mutagenic call,[13],inactive; negative
same,mutagenic call,"Test System: AMES SALMONELLA TYPHIMURIUM, Strain/Indicator: TA100, Metabolic Activation: RAT, LIVER, S-9, PCB, Method: STANDARD PLATE",inactive; negative
